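Briefly, cells in 96-well plates were exposed to five compound concentrations for 48 h, and endpoints were estimated by linear interpolation. GI50 marks 50% less growth. Definition used: TGI = concentration required for complete inhibition of growth.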
Assays:
Assay in all cases: NCI tumour cell line growth inhibition, 48 h
HCC-2998 colon = test system: HCC-2998 colon
ACHN renal = test system: ACHN renal
786-0 renal = test system: 786-0 renal
U251 CNS = test system: U251 CNS
HT29 colon = test system: HT29 colon
NCI-H460 lung = test system: NCI-H460 lung
SW-620 colon = test system: SW-620 colon
MCF7 breast = test system: MCF7 breast
RPMI-8226 leukemia = test system: RPMI-8226 leukemia
NCI-H226 lung = test system: NCI-H226 lung

SMILES	TGI (HCC-2998 colon) [µM]	TGI (ACHN renal) [µM]	TGI (786-0 renal) [µM]	TGI (U251 CNS) [µM]	TGI (HT29 colon) [µM]	TGI (NCI-H460 lung) [µM]	TGI (SW-620 colon) [µM]	TGI (MCF7 breast) [µM]	TGI (RPMI-8226 leukemia) [µM]	TGI (NCI-H226 lung) [µM]	GI50 (HCC-2998 colon) [µM]	GI50 (ACHN renal) [µM]	GI50 (786-0 renal) [µM]	GI50 (U251 CNS) [µM]	GI50 (NCI-H460 lung) [µM]	GI50 (SW-620 colon) [µM]	GI50 (MCF7 breast) [µM]	GI50 (RPMI-8226 leukemia) [µM]	GI50 (NCI-H226 lung) [µM]	GI50 (HT29 colon) [µM]
OCCn1cnc2c(SCc3ccccc3)ncnc21	> 100	> 100	> 100	> 100	> 100	> 100	> 100	> 100	> 100	> 100	–	–	–	–	–	–	–	–	–	–
CN(C)C(=O)c1ccc([N+](=O)[O-])cc1	> 100	> 100	> 100	> 100	> 100	> 100	> 100	–	–	> 100	–	–	–	–	–	–	–	–	–	–
CCc1cccc(C)c1NC(=O)C1=C(C)NC(C)=C(C(=O)Nc2c(C)cccc2CC)C1c1ccc2c(c1)OCO2	33.8	29.6	33.2	32.1	39.4	45.5	55.9	–	47.2	49.5	–	–	–	–	–	–	–	–	–	–
CCSc1nc(SCC)c2c(-c3ccc(OC)c(OC)c3)c(C#N)c(SCC)nc2n1	49.2	38	59.1	48.3	–	> 100	> 100	> 100	94.4	54.6	21	17.8	18.7	22.7	21.8	61.1	14.8	8.38	20.5	–
CC1(C)CC2CC(CC(C)(C)C2=O)C1=O	> 100	> 100	> 100	> 100	> 100	> 100	> 100	–	> 100	–	–	–	–	–	–	–	–	–	–	–
C[CH2][Sn]([CH2]C)([O]C(=O)c1ccccc1F)[O][Sn]([CH2]C)([CH2]C)[O]C(=O)c1ccccc1F	> 73.8	33	> 56.6	31.6	> 72.7	> 100	36.5	–	> 100	37.6	> 43.7	18.7	25.2	17.1	> 54	20.3	–	20.9	20.2	39.8
COc1cccc(NC(=O)CC(=O)N2N=C(n3ccc4ccccc43)CC2c2ccccc2)c1 (stereo not given)	> 100	> 100	> 100	> 100	> 100	> 100	> 100	–	> 100	–	–	–	–	–	–	–	–	–	–	–
O=[N+]([O-])c1ccc(N2CCC(CCCC3CCN(c4ccc([N+](=O)[O-])cc4[N+](=O)[O-])CC3)CC2)c([N+](=O)[O-])c1	–	35.4	28.7	29.2	22.2	28.8	57.4	28.3	43.3	56.6	–	–	–	–	–	–	–	–	–	–
CCCN(CCC)C(=O)C(=O)c1c(N)[nH]n(-c2ccccc2)c1=O	> 100	> 100	> 100	> 100	> 100	> 100	> 100	–	> 100	> 100	–	–	–	–	–	–	–	–	–	–
CCOC(=O)/C(O)=C(/C(=O)OC)c1ccc(Cl)cc1	> 100	> 100	> 100	> 100	> 100	> 100	> 100	–	> 100	–	–	–	–	–	–	–	–	–	–	–
CN(C)C(=O)c1cnc2oc3ccc(O)cc3c2c1-c1ccccc1	–	> 25	> 25	> 25	–	> 25	> 25	> 25	> 25	–	–	> 25	> 25	> 25	16.2	> 25	> 25	> 25	–	–
COc1cc([N+](=O)[O-])c(OC)cc1-c1nc2sccn2c1/C=N/N=C(N)N	–	28.8	49.6	15	> 100	> 100	> 100	> 100	> 100	–	–	12.8	18	3.66	28.3	15	22	> 100	–	82.1
NCCN.O=C([O-])CN1CCOCC1.[OH-].[Pt+4]	> 100	> 100	> 100	> 100	> 100	> 100	> 100	> 100	–	> 100	> 100	> 100	> 100	> 100	37.5	> 100	> 100	–	> 100	> 100
COC(=O)C(CC1=C(O)Nc2ccccc2N1)/C(=N/NC(N)=O)C(=O)Nc1ccccc1C (stereo not given)	> 100	> 100	> 100	> 100	> 100	> 100	–	–	48.4	> 100	–	–	–	–	–	–	–	–	–	–
COc1cccc(NC(=O)CC(=O)N2N=C(N3c4ccccc4Sc4ccccc43)CC2c2ccccc2)c1 (stereo not given)	> 100	> 100	> 100	> 100	> 100	> 100	> 100	–	> 100	> 100	–	–	–	–	–	–	–	–	–	–
C=C1CC[C@@H]2[C@](C)(COC(C)=O)[C@H](OC(C)=O)CC[C@@]2(C)[C@@H]1CC(Nc1ccc(S(=O)(=O)Nc2ccc(Cl)nn2)cc1)C1=CCOC1=O (stereo not given in full)	3.86	3.32	3.14	3.05	–	4.31	2.8	–	3.04	–	1.84	1.68	1.69	1.68	2.03	1.07	–	0.445	–	–
O=C(O)C(CS)NCc1c2ccccc2nc2ccccc12 (stereo not given)	> 100	> 100	> 100	> 100	> 100	> 100	> 100	–	70.3	> 100	–	–	–	–	–	–	–	–	–	–
COc1ccc(COC2CC(OC)OC(C)C2OC(=O)c2ccccc2)cc1 (stereo not given)	> 100	> 88.4	> 100	> 100	39.6	> 100	> 100	–	46.7	65.9	–	–	–	–	–	–	–	–	–	–

SMILES	TGI (HCC-2998 colon) [µM]	TGI (ACHN renal) [µM]	TGI (786-0 renal) [µM]	TGI (U251 CNS) [µM]	TGI (HT29 colon) [µM]	TGI (NCI-H460 lung) [µM]	TGI (SW-620 colon) [µM]	TGI (MCF7 breast) [µM]	TGI (RPMI-8226 leukemia) [µM]	TGI (NCI-H226 lung) [µM]	GI50 (HCC-2998 colon) [µM]	GI50 (ACHN renal) [µM]	GI50 (786-0 renal) [µM]	GI50 (U251 CNS) [µM]	GI50 (NCI-H460 lung) [µM]	GI50 (SW-620 colon) [µM]	GI50 (MCF7 breast) [µM]	GI50 (RPMI-8226 leukemia) [µM]	GI50 (NCI-H226 lung) [µM]	GI50 (HT29 colon) [µM]
O=S(=O)(/C=C/CS(=O)(=O)c1ccccc1)c1ccccc1	57.1	> 100	55.6	77.5	> 100	63.9	45.7	–	95.7	61.9	–	–	–	–	–	–	–	–	–	–
COc1cc2c(cc1OC)[C@@H](Nc1ccc(F)cc1)C1COC(=O)[C@@H]1C2c1cc(OC)c(O)c(OC)c1 (stereo not given in full)	9.9	2.49	2.51	4.03	> 58.3	2.16	> 38.5	–	2.45	1.64	–	–	–	–	–	–	–	–	–	–
Cc1nn(C)c(COc2ccc(N3CCN(S(=O)(=O)N(C)C)CC3)cc2)c1-c1cccc2c(CCCOc3cccc4ccccc34)c(C(=O)O)n(CCN3CCOCC3)c12	9.34	15.7	6.97	11.5	6.92	11.1	15	11	–	15.9	2.81	4.03	2.52	3.13	3.17	3.59	2.84	–	3.19	2.63
CNC(=O)OCc1c2ccncc2c(C)c2c1[nH]c1ccc(OC)cc12	1.02	0.563	0.494	0.893	> 100	1.3	> 100	–	0.668	0.784	–	–	–	–	–	–	–	–	–	–
O=C1/C(=N\O)S(=O)(=O)c2ccccc21	> 100	> 100	> 100	> 100	> 100	> 100	> 100	–	> 100	> 100	–	–	–	–	–	–	–	–	–	–
CC(=O)[CH-]C(=O)c1ccccc1.CC(=O)[CH-]C(=O)c1ccccc1.CC(=O)[CH-]C(=O)c1ccccc1.[In+3]	–	> 100	> 100	> 100	> 100	> 100	> 100	–	64.4	84.3	–	35	61.5	22.8	16.6	53.1	–	19.2	24.7	31.9
Cc1nn(-c2ccc(Cl)cc2)c2nc3c(nc12)C(=O)C(=O)c1ccccc1-3	3.79	> 100	25.9	10.1	3.99	–	20.9	> 100	> 100	30.1	1.74	19.5	5.39	3.21	–	3.25	27.9	5.65	7.65	2.01
O=C(O)c1nc(-c2ccc(Cl)c(Cl)c2)nc2ccc(Cl)cc12	> 100	> 100	> 100	> 100	> 100	> 100	> 100	–	> 100	–	–	–	–	–	–	–	–	–	–	–
Cc1nn(-c2ccc([N+](=O)[O-])cc2)c2ncnc(N/N=C/c3ccccc3O)c12	–	1.29	3.41	2.44	> 100	1.46	–	> 100	> 100	> 26.2	–	0.3	0.539	0.332	0.34	–	0.36	0.619	2.56	1.3
CC(C)(c1ccccc1)c1ccc(Oc2ccc(C#N)c(C#N)c2)cc1	> 100	> 100	> 100	> 100	–	> 100	> 100	–	> 100	–	> 100	–	> 100	–	> 100	–	–	–	–	–
Cn1cc(-c2csc(-c3cn(CCCN4CCCCC4)c4ccccc34)n2)c2cccnc21	3.23	3.01	2.93	3.38	3.62	4	3.74	3.29	–	7.62	1.68	1.63	1.53	1.87	2.04	1.95	1.65	–	2.55	1.89
CCC[CH2][Sn]1([CH2]CCC)[O]C2C(CO)OC(n3ccc(N)nc3=O)C2[O]1 (stereo not given)	3.2	2.67	2.88	2.87	–	3.6	–	1.42	2.02	4.25	1.66	1.35	1.54	1.52	1.79	–	0.3	0.29	2.02	–
CCc1ccccc1NC(=O)/C(N=O)=C(/C)O	> 100	> 100	> 100	> 100	> 100	> 100	> 100	–	> 100	> 100	–	–	–	–	–	–	–	–	–	–
O=C(NC(=Nc1ccccc1)SCCSC(=Nc1ccccc1)NC(=O)c1cccs1)c1cccs1	> 100	> 100	> 100	> 100	> 100	> 100	> 100	–	> 100	> 100	–	–	–	–	–	–	–	–	–	–
O=C(N/C(=C\c1ccc(/C=C(\NC(=O)c2ccccc2)c2nc3ccccc3[nH]2)cc1)c1nc2ccccc2[nH]1)c1ccccc1	> 100	> 100	> 100	> 100	> 100	> 100	> 100	–	> 100	–	–	–	–	–	–	–	–	–	–	–
COc1ccc(CC2(Cc3ccc(OC)cc3)CCOC2=O)cc1	–	> 100	> 100	> 100	> 100	> 100	> 100	–	> 100	> 100	–	–	–	–	–	–	–	–	–	–
CCOc1ccc(NC(=O)C(=O)C(C(=O)c2ccc3ccccc3c2)C2OC(=O)c3ccccc32)cc1 (stereo not given)	23.2	> 100	40.5	24.4	> 100	> 100	92.6	–	38.4	13.5	–	–	–	–	–	–	–	–	–	–
Oc1c(Cl)c(Cl)c(O)c2c1CCCC2	30.6	3.27	3.94	42.7	44.6	31.9	3.92	4.56	6.91	–	–	–	–	–	–	–	–	–	–	–

— PubChem BioAssay (NCI)
